Measurements from ChEMBL document CHEMBL4266036, “Hoshinoamides A and B, Acyclic Lipopeptides from the Marine Cyanobacterium Caldora penicillata” (J Nat Prod, 2018).

What was measured:
Plasmodium falciparum = assay: Antiplasmodial activity against Plasmodium falciparum 3D7 […] after 72 hrs by NBT dye based LDH assay; format: functional, organism-based; conditions: 3D7, 72 h
HeLa = assay: Cytotoxicity against human HeLa cells after 72 hrs by MTT assay; format: cell-based

Row | SMILES | IC50 (Plasmodium falciparum) [µM] | IC50 (HeLa) [µM]
1 | CC[C@H](C)[C@H](NC(=O)[C@H](CC(C)C)N(C)C(=O)CCCCCCCCNC(=O)CCCc1ccc(O)cc1)C(=O)N(C)[C@@H](C(=O)N[C@@H](CCC(N)=O)C(=O)N1CCC[C@H]1C(=O)N(C)[C@@H](Cc1ccccc1)C(=O)N1CCC[C@H]1C(=O)OC)C(C)C | 1 | 29
2 | CC[C@H](C)[C@H](NC(=O)[C@H](CC(C)C)N(C)C(=O)CCCCCNC(=O)CCCc1ccc(O)cc1)C(=O)N(C)[C@@H](C(=O)N[C@@H](CCC(N)=O)C(=O)N[C@H](C(=O)N(C)[C@H](Cc1ccccc1)C(=O)N1CCC[C@H]1C(=O)OC)C(C)C)C(C)C | 0.52 | 14
